Data: paper PMC8672774, “Discovery of cell active macrocyclic peptides with on-target inhibition of KRAS signaling” (Chemical Science, 2021)
Numbered stars: 1 amine (or outer) side, 2 acyl side, 3 side chain; on linkers, the order of the positions; unused ones are H or OH. Bridge positions count the residues as written; N and C are the ends. Square brackets hold non-standard residues; d marks the D form. Peptide text beside a SMILES is read from it. CH2 = C([*:1])[*:2]

Legend:
[1] = tested on: A375 and SK-MEL-28 cells vs AsPC-1 cells; test: Live-cell fluorescence imaging of FAM-labelled peptides; format: cell-based; details: A375 and SK-MEL-28 compared to AsPC-1
[2] = tested on: MAPK and PI3K signaling in A375 cells (BRAF^V600E); test: Western blot of MAPK and PI3K signaling in A375 cells; format: cell-based
[3] = tested on: MAPK and PI3K signaling in SK-MEL-28 cells (BRAF^V600E); test: Western blot of MAPK and PI3K signaling in SK-MEL-28 cells; format: cell-based
[4] = tested on: rat mast cells; test: Ex vivo rat mast cell degranulation and histamine release assay
[5] = tested on: pERK and pAKT in AsPC-1 cells; test: Western blot of KRAS signaling (pERK, pAKT) in AsPC-1 cells; format: cell-based; details: 1 hour and 16 hour time-points
[6] = tested on: EGF receptor activation; test: Western blot of EGF receptor activation in AsPC-1 cells; format: cell-based
[7] = tested on: TNFα-stimulated NFκB signaling; test: Western blot of TNFα-stimulated NFκB signaling in AsPC-1 cells; format: cell-based
[8] = tested on: AsPC-1, SK-CO-1, NCI-H358 and NCI-H2122 cells; test: CellTiter-Glo 2.0 cell viability assay, KRAS mutant lines; format: cell-based; details: AsPC-1, SK-CO-1, NCI-H358, NCI-H2122; 120 h
Experimental: (§1) Prism software (GraphPad, San Diego, CA).
(§2) according to the manufacturer’s protoco l.
(§3) time of 0.15 second per well.
(§4) AMG510 was prepared internally from
(§5) Cells were cultured and seeded

[9] = tested on: A375 cells; test: CellTiter-Glo 2.0 cell viability assay, A375; format: cell-based; details: 120 h
Experimental: as §1, §2, §3, §4, §5

[10] = tested on: pERK in KRAS^G12C, KRAS^G12V and KRAS^G12D cancer lines; test: Cellular phospho-ERK assay in panel of KRAS mutant cancer lines; format: cell-based
Experimental: For the latter, this included HEK293 cells (Fig. 4C), a cell line that has no dependency on RAS for cell proliferation.[21]
Ratio of pERK vs total ERK in
Penicillin/Streptomycin (Gibco 15140-122).
A375 cells were seeded at a
membranes were measured by LDH release assay.
according to manufacturer’s protocol.

[11] = tested on: extended cell panel incl. HEK293 cells; test: CellTiter-Glo cell viability assay (extended cell panel); format: cell-based
Source text: Table S2: Cell culture conditions and seeding densities for 5-day CellTiter- Glo® cell viability assay on extended 1 6 cell panel.
Cell Line Vendor Catalog Description Complete g rowth m e d i um Seeding density […]
Capan-1 ATCC HTB-79 pancreas, adenocarcinoma IMDM+20%FBS 7 00
CFPAC-1 ATCC CRL-19 18 pancreas, ductal adenocarcinoma; cystic fibrosis IMDM+10%FBS 6 00 […]
MiaPaCa-2 ATCC CRL-14 20 pancreas, pancreatic Carcinoma DMEM+10%FBS 6 00 NCI-H358 ATCC CRL-58 07 lung, non-small cell lung cancer,bronchioalveolar RPMI1640+10%FBS […]
Panc 10.05 ATCC CRL-25 47 pancreas, adenocarcinoma RPMI1640 + 20 Units/ml human […]
SK-CO-1 ATCC HTB-39 colon, colorectal adenocarcinoma EMEM+10%FBS 3 00 […]
SW4 80 ATCC CCL-22 8 colon, adenocarcinoma Leibovitz's L-15
Prism software (GraphPad, San Diego, CA). […]
according to the manufacturer’s protoco l. […]
as §3, §4
Cells were cultured and seeded […]
the manufacturer’s protocol. […]
integration time of 0.1 second per well. […]
indicated peptides the next day.

[12] = tested on: pERK in NCI-H358 (heterozygous KRAS^G12C) cells; test: Cellular phospho-ERK assay in NCI-H358 cells with and without EGF; details: 20 nM EGF stimulation
[13] = molecular target: T1, GDP-loaded KRAS^G12D (Homo sapiens, UniProt P01116, G12D); test: TR-FRET competitive binding assay using KRAS G12D loaded with GDP; details: competition with 500 nM FAM-labeled tracer; relative binding, EC50 right-shifted compared to KD
T1 construct: (AAs 1 to 169 plus a 4xGly motif appended to the N-; His-SUMO (N, cleaved yes); made in house; host or cells: E. coli Rosetta 2 (DE3)

**Q.** For `CC[C@H](C)[C@@H]1NC(=O)[C@H](Cc2ccc(O)cc2)NC(=O)[C@H](CC(C)C)NC(=O)[C@@H]2CCCN2C(=O)[C@H](NC(=O)[C@@H](CCCNC(=N)N)NC(=O)[C@@H](CCCNC(=N)N)NC(=O)[C@@H](CCCNC(=N)N)NC(=O)[C@@H](CCCNC(=N)N)NC(=O)c2ccc3c(c2)C(=O)OC32c3ccc(O)cc3Oc3cc(O)ccc32)CSCSC[C@@H](C(=O)N[C@H](CCCNC(=N)N)C(=O)N[C@H](CCCNC(=N)N)C(=O)N[C@H](CCCNC(=N)N)C(=O)N[C@H](CCCNC(=N)N)C(N)=O)NC(=O)[C@H](C(C)C)NC(=O)[C@@H]2CCCN2C(=O)[C@H](CC(=O)O)NC(=O)[C@H](Cc2ccc(O)cc2)NC(=O)[C@H](CO)NC1=O` [MP-8996], which “cell entry of FAM-labeled peptide in BRAF mutant cells” value [1] is on record?
**A.** roughly equivalent amounts compared to AsPC-1 cells

**Q.** For `CC[C@H](C)[C@@H]1NC(=O)[C@H](Cc2ccc(O)cc2)NC(=O)[C@H](CC(C)C)NC(=O)[C@@H]2CCCN2C(=O)[C@H](NC(=O)[C@@H](CCCNC(=N)N)NC(=O)[C@@H](CCCNC(=N)N)NC(=O)[C@@H](CCCNC(=N)N)NC(=O)[C@@H](CCCNC(=N)N)NC(=O)[C@H](CCCCN=[N+]=[N-])NC(C)=O)CSCSC[C@@H](C(=O)N[C@H](CCCNC(=N)N)C(=O)N[C@H](CCCNC(=N)N)C(=O)N[C@H](CCCNC(=N)N)C(=O)N[C@H](CCCNC(=N)N)C(N)=O)NC(=O)[C@H](C(C)C)NC(=O)[C@@H]2CCCN2C(=O)[C@H](CC(=O)O)NC(=O)[C@H](Cc2ccc(O)cc2)NC(=O)[C@H](CO)NC1=O` [MP-4090], which “inhibition of MAPK signaling in A375” value [2] is on record?
**A.** inactive

**Q.** What about the “inhibition of MAPK signaling in SK-MEL-28” value [3] of the same molecule?
**A.** inactive

**Q.** And the “activation of mast cell degranulation (histamine release), in words” value ([4]; ex vivo, rat mast cells)?
**A.** highly potent activators of MCD

**Q.** What about the “rMCD histamine release threshold” value ([4]; lowest concentration at which histamine release was observed, rat peritoneal mast cells, 30 min) of the same molecule?
**A.** ≥0.14 µM

**Q.** And the “inhibition of KRAS signaling (pERK, pAKT) by Western blot” value [5]?
**A.** display cell-based inhibition

**Q.** What about the “effect on upstream EGF receptor activation” value [6] of the same molecule?
**A.** no effect

**Q.** What about the “effect on TNFα-stimulated NFκB signaling” value [7] of the same molecule?
**A.** no effect

**Q.** Which results are given for `CC[C@H](C)[C@@H]1NC(=O)[C@H](Cc2ccc(O)cc2)NC(=O)[C@H](CC(C)C)NC(=O)[C@@H]2CCCN2C(=O)[C@H](NC(=O)[C@@H](CCCNC(=N)N)NC(=O)[C@@H](CCCNC(=N)N)NC(=O)[C@@H](CCCNC(=N)N)NC(=O)[C@@H](CCCNC(=N)N)NC(=O)[C@H](CCCCN=[N+]=[N-])NC(C)=O)CSCSC[C@@H](C(=O)N[C@H](CCCNC(=N)N)C(=O)N[C@H](CCCNC(=N)N)C(=O)N[C@H](CCCNC(=N)N)C(=O)N[C@H](CCCNC(=N)N)C(N)=O)NC(=O)[C@H](C(C)C)NC(=O)[C@@H]2CCCN2C(=O)[C@H](CC(=O)O)NC(=O)[C@H](Cc2ccc(O)cc2)NC(=O)[C@](C)(CO)NC1=O` [MP-3995]?
**A.** inhibition of cell proliferation in KRAS mutant lines [8]: inhibitory effects on cell proliferation; cell growth inhibition in A375 [9]: lack of cell growth inhibition; pERK inhibition across KRAS mutant cancer lines [10]: low micromolar range; sensitivity of HEK293 cell proliferation ([11]; HEK293, no dependency on RAS): insensitive; number of KRAS mutant cell lines with inhibited proliferation ([11]; extended panel, 120 h): 8 out of 13

**Q.** What does the source list for `CC[C@@H](C)[C@H]1NC(=O)[C@@H](Cc2ccc(O)cc2)NC(=O)[C@@H](CC(C)C)NC(=O)[C@H]2CCCN2C(=O)[C@H](NC(=O)[C@@H](CCCNC(=N)N)NC(=O)[C@@H](CCCNC(=N)N)NC(=O)[C@@H](CCCNC(=N)N)NC(=O)[C@@H](CCCNC(=N)N)NC(C)=O)CSCSC[C@H](C(=O)N[C@H](CCCNC(=N)N)C(=O)N[C@H](CCCNC(=N)N)C(=O)N[C@H](CCCNC(=N)N)C(=O)N[C@H](CCCNC(=N)N)C(N)=O)NC(=O)[C@@H](C(C)C)NC(=O)[C@H]2CCCN2C(=O)[C@@H](CC(=O)O)NC(=O)[C@@H](Cc2ccc(O)cc2)NC(=O)[C@@H](CO)NC1=O` [MP-4956, Ac-rrrr-cyclo(c(methylene)plyisydpvc)-rrrr-NH2]?
**A.** inhibition of cell proliferation in KRAS mutant lines [8]: minimal inhibitory effects; inhibition of KRAS signaling (pERK, pAKT) by Western blot [5]: showed no activity

**Q.** How did the “potency shift in pERK in the presence of EGF, NCI-H358” value [12] turn out when `C=CC(=O)N1CCN(c2nc(OC[C@@H]3CCCN3C)nc3c2CCN(c2cccc4cccc(C)c24)C3)C[C@@H]1CC#N` [MRTX-1257] was run?
**A.** 2 fold

**Q.** With `CC[C@H](C)[C@@H]1NC(=O)[C@H](Cc2ccc(O)cc2)NC(=O)[C@H](C)NC(=O)[C@@H]2CCCN2C(=O)[C@H](NC(=O)[C@H](CCCNC(=N)N)NC(=O)[C@H](CCCNC(=N)N)NC(C)=O)CSCSC[C@@H](C(=O)N[C@@H](CCCNC(=N)N)C(=O)N[C@@H](CCCNC(=N)N)C(N)=O)NC(=O)[C@H](C(C)C)NC(=O)[C@@H]2CCCN2C(=O)[C@H](CC(=O)O)NC(=O)[C@H](Cc2ccc(O)cc2)NC(=O)[C@H](CO)NC1=O` [Compound 6] (Ac-RR[dC]PAYISYDPVCRR-NH2; linker 3-13 via CH2) as the molecule, how does the EC50 [13] read?
**A.** > 48.1 µM
